What was measured:
[1] = target: T1, CYP3A4 (Homo sapiens, UniProt P08684); test: High density DDI 3 μM cocktail screen in human liver microsomes, midazolam probe; format: in vitro ADME; settings: human, liver microsomes, probe midazolam, read-out: % inhibition 3A4 @ 3 μM
T1 construct: utilizes human liver microsomes together with isoform-specific clinical drug probes; from tissue; host or cells: human liver microsomes
In short: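 Pooled human liver microsomes incubated with isoform-specific clinical probe substrates as a cocktail (midazolam for CYP3A4), with or without test compound at 3 μM. Metabolite formation followed over time by LC-MS/MS. Inhibition expressed as a single-point percentage.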

[2] = target: MC4 receptor (Homo sapiens, UniProt P32245); test: MC4 EC50 functional potency (protocol E of US2005/0176772 / WO 2005/077935); format: cell-based
Method: The compounds of formula (I) of the present invention have utility as MCR4 agonists in the treatment of various disease states.
MC5 and MC4 EC50 activity was determined as described by assay protocols D and E, respectively, in US2005/0176772 (pages 28-30).

[3] = target: T2, MC3 receptor (MC3R) (Homo sapiens, UniProt P41968); test: Nle4, D-Phe7-α-MSH inhibition at the MC3 receptor (competition binding, SPA, CHO-CRE MC3R membranes)
T2 construct: expressed in transfected cells; host or cells: CHO-CRE MC3R cells (membranes)
Source text: Nle4, D-Phe7-α-MSH Inhibition at the MC3 Receptor
(§1) Nle4, D-Phe7-α-MSH is a stable analogue of melanocyte-stimulating hormone (MSH), which is an agonist at the MC3 receptor (MC3R). Compounds can be evaluated for their ability to inhibit Nle4, D-Phe7-α-MSH binding to membranes from cells expressing the MC3R using a competition binding assay versus [^125I] Nle4, D-Phe7-α-MSH.
(§2) Cells expressing the MC3R were subject to homogenisation and the membrane fragment isolated by differential centrifugation. CHO-CRE MC3R cell membranes were coupled to PVT-PEI-WGA SPA Beads type A for 2 hours, spun at 1000 RPM for 5 mins and suspended to a final assay concentration of 800 ug bead/ml (1.2 ug membrane, 40 ug bead per well). Bead/membrane mix was incubated with 0.06 nM [^125I] Nle4, D-Phe7-α-MSH and 11 half-log concentrations of competitor ligand, in duplicate, in a total volume of 50 μl buffer per well (25 mM HEPES, 1 mM MgCl2, 2.5 mM CaCl2, 1% Pluronic F68, 1 complete EDTA protease inhibitor tablet/50 ml pH7). Non-specific binding was determined by the inclusion of 100 nM SHU9119. The reaction was initiated by the addition of bead/membranes and plates were incubated at room temperature for 12 hours (the first hour on a plate shaker), after which the amount of radioactivity present was determined using a Wallac plate counter. Ki values were determined by data analysis using appropriate software.

[4] = In vitro metabolism rate determination, human liver microsome (HLM) assay; format: in vitro ADME; settings: human, liver microsomes, read-out: HLM: Clint, app
In short: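 Human liver microsomes at 0.5 nmol cytochrome P450/ml with 1 μM substrate, pre-warmed 5 min at 37° C, reaction started with NADP; samples taken 0–60 min and terminated. Substrate loss measured; first-order rate constant from log-linear regression converted to half-life or Clint (μl/min/mg protein).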

[5] = target: T3, MC4 receptor (MC4R) (Homo sapiens, UniProt P32245); test: Nle4, D-Phe7-α-MSH inhibition at the MC4 receptor (competition binding, SPA, CHO-CRE MC4R membranes)
T3 construct: expressed in transfected cells; host or cells: CHO-CRE MC4R cells (membranes)
Source text: Nle4, D-Phe7-α-MSH Inhibition at the MC4 Receptor
as §1, with “MC4” for “MC3”, “(MC4R).” for “(MC3R).”, “MC4R” for “MC3R”
as §2, with “MC4R” for “MC3R”, “min” for “mins”, “a” for “a final assay”, “300” for “800”, “(0.15” for “(1.2”, “15” for “40”

T1 sequence (P08684 whole entry, canonical isoform): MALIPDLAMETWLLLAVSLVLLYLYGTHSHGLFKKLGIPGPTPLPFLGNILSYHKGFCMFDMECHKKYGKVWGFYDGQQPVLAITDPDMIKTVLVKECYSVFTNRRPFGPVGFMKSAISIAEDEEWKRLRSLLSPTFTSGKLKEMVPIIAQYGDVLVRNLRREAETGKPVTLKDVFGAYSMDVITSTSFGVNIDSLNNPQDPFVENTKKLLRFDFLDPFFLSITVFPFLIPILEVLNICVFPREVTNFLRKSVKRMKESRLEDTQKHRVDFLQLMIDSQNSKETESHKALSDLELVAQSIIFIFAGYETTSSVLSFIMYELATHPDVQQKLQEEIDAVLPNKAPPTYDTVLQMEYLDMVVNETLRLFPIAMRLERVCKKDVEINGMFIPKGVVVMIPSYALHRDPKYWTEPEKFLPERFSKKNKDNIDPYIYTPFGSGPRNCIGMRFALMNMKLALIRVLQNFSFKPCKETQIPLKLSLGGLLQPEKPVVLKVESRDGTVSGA
T2 sequence (P41968 whole entry): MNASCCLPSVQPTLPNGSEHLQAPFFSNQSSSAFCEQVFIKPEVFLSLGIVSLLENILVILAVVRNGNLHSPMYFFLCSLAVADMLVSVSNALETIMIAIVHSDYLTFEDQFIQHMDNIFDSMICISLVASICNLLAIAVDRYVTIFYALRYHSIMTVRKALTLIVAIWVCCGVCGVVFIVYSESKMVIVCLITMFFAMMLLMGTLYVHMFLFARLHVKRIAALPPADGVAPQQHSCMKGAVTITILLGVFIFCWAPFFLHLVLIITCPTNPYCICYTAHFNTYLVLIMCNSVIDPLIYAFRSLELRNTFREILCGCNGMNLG
T3 sequence (P32245 whole entry): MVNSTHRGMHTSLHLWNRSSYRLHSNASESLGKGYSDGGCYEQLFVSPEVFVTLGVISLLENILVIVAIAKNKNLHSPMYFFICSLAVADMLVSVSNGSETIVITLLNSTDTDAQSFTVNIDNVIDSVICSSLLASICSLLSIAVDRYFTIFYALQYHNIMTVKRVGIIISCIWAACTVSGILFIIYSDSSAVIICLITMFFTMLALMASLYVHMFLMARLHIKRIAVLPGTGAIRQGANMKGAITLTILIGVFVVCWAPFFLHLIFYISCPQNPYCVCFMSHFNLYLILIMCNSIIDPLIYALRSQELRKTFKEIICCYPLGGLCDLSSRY
Sequence of MC4 receptor (P32245 whole entry): as above

Row | SMILES | inhibition at 3 µM [1] | EC50 [2] | Ki [3] | microsomal CLint at 1 μM [4] | Ki [5]
1 | COC(=O)N1CCN(C(=O)[C@@H]2CN(C(C)(C)C)C[C@H]2c2ccc(F)cc2F)CCCC1c1ccccc1 (mixture of isomers) [Example 82] | 47% | 60.6 nM | 19400 nM | 66 µL/min/mg | 5180 nM
2 | COC(=O)N1CCN(C(=O)[C@@H]2CN(C(C)(C)C)C[C@H]2c2ccc(F)cc2F)CCCC1c1ccc(Cl)cc1 (mixture of isomers) [Example 83] | 29% | 32.1 nM | 8110 nM | 23 µL/min/mg | 1690 nM
3 | COc1ccc([C@@H]2CN(C(C)(C)C)C[C@H]2C(=O)N2CCCC(c3ccc(Cl)cc3)N(S(C)(=O)=O)CC2)c(F)c1 (mixture of isomers) [Example 92] | 33.5% | 274 nM | 17900 nM | 32.4 µL/min/mg | 1770 nM
4 | COC(=O)N1CCN(C(=O)[C@@H]2CN(C(=O)OC(C)(C)C)C[C@H]2c2ccc(F)cc2F)CCCC1c1ccccc1 (mixture of isomers) [Example 97] | 63% | 157 nM | 3720 nM | 247 µL/min/mg | 1620 nM
5 | CCCC(=O)N1CCN(C(=O)[C@@H]2CN(C(C)(C)C)C[C@H]2c2ccc(F)cc2F)CCCC1c1ccccc1 (mixture of isomers) [Example 104, 1-{[(3S,4R)-1-tert-butyl-4-(2,4-difluorophenyl)pyrrolidin-3-yl]carbonyl}-4-butyryl-5-phenyl-1,4-diazocane] | 48% | 18 nM | 9080 nM | 69.2 µL/min/mg | 583 nM
6 | COc1ccc([C@@H]2CN(c3ccc(C#N)nn3)C[C@H]2C(=O)N2CCCC(c3ccc(Cl)cc3)N(S(C)(=O)=O)CC2)c(F)c1 (mixture of isomers) [Example 105, 6-[(3S,4R)-3-{[5-(4-chlorophenyl)-4-(methylsulfonyl)-1,4-diazocan-1-yl]carbonyl}-4-(2-fluoro-4-methoxyphenyl)pyrrolidin-1-yl]pyridazine-3-carbonitrile] | 37.5% | 36.1 nM | 571 nM | 42 µL/min/mg | 92.2 nM
7 | COC(=O)N1CCN(C(=O)[C@@H]2CN(c3ccc(Cl)nn3)C[C@H]2c2ccc(OC)cc2F)CCCC1c1ccc(Cl)cc1 (mixture of isomers) [Example 107, Methyl 8-(4-chlorophenyl)-4-{[(3S,4R)-1-(6-chloropyridazin-3-yl)-4-(2-fluoro-4-methoxyphenyl)pyrrolidin-3-yl]carbonyl}-1,4-diazocane-1-carboxylate] | 55.5% | 27.7 nM | 683 nM | 47 µL/min/mg | 96.4 nM
8 | COC(=O)N1CCN(C(=O)[C@@H]2CN(c3ccc(=O)[nH]n3)C[C@H]2c2ccc(OC)cc2F)CCCC1c1ccc(Cl)cc1 (mixture of isomers) [Example 112, methyl 8-(4-chlorophenyl)-4-{[(3S,4R)-4-(2-fluoro-4-methoxyphenyl)-1-(6-oxo-1,6-dihydropyridazin-3-yl)pyrrolidin-3-yl]carbonyl}-1,4-diazocane-1-carboxylate] | 65.5% | 3.38 nM | 404 nM | 15 µL/min/mg | 17.4 nM
9 | COC(=O)N1CCN(C(=O)[C@@H]2CN(c3ccc(=O)n(C)n3)C[C@H]2c2ccc(OC)cc2F)CCCC1c1ccc(Cl)cc1 (mixture of isomers) [Example 116] | 75% | 3.6 nM | 573 nM | 12 µL/min/mg | 24.3 nM
10 | COc1ccc([C@@H]2CN(c3ccc(=O)[nH]n3)C[C@H]2C(=O)N2CCCC(c3ccc(Cl)cc3)N(S(C)(=O)=O)CC2)c(F)c1 (mixture of isomers) [Example 111, 6-[(3S,4R)-3-{[5-(4-chlorophenyl)-4-(methylsulfonyl)-1,4-diazocan-1-yl]carbonyl}-4-(2-fluoro-4-methoxyphenyl)pyrrolidin-1-yl]pyridazin-3(2H)-one] | 66.5% | 14.7 nM | 942 nM | 24 µL/min/mg | 68.4 nM
11 | COc1ccc([C@@H]2CN(c3ccc(=O)n(C)n3)C[C@H]2C(=O)N2CCCC(c3ccc(Cl)cc3)N(S(C)(=O)=O)CC2)c(F)c1 (mixture of isomers) [Example 115, 6-[(3S,4R)-3-{[5-(4-chlorophenyl)-4-(methylsulfonyl)-1,4-diazocan-1-yl]carbonyl}-4-(2-fluoro-4-methoxyphenyl)pyrrolidin-1-yl]-2-methylpyridazin-3(2H)-one] | 58.2% | 15.7 nM | 1090 nM | 22.7 µL/min/mg | 53.9 nM
12 | COc1ccc([C@@H]2CN(c3ccc(=O)[nH]n3)C[C@H]2C(=O)N2CCCC(c3ccc(Cl)cc3)N(S(C)(=O)=O)CC2)c(F)c1 (single isomer, unassigned) [Example 113] | 44.3% | 12.7 nM | 1300 nM | 24.8 µL/min/mg | 50.5 nM
13 | COC(=O)N1CCN(C(=O)[C@@H]2CN(c3ccc(C#N)nn3)CC2c2ccc(OC)cc2F)CCCC1c1ccc(Cl)cc1 (stereo in doubt) [Example 106, methyl 8-(4-chlorophenyl)-4-{[(3S,4S)-4-(2-fluoro-4-methoxyphenyl)-1-(6-cyanopyridazin-3-yl)pyrrolidin-3-yl]carbonyl}-1,4-diazocane-1-carboxylate] | 66.5% | 6.4 nM | 250 nM | 38 µL/min/mg | 28.5 nM
14 | CC(=O)N1CCN(C(=O)[C@@H]2CN(c3ccc4nncn4n3)C[C@H]2c2ccc(Cl)cn2)CCC[C@@H]1c1ccc(Cl)cc1 [Example 5] | 80.4% | 23.2 nM | 1680 nM | 17.4 µL/min/mg | 226 nM
15 | CC(=O)N1CCN(C(=O)[C@@H]2CN(C(C)(C)C)C[C@H]2c2ccc(F)cc2F)CCC[C@H]1c1ccc(Cl)cc1 [Example 8] | 23.9% | 52.1 nM | 11500 nM | 17 µL/min/mg | 1010 nM
16 | COCC(=O)N1CCN(C(=O)[C@@H]2CN(C(C)(C)C)C[C@H]2c2ccc(F)cc2F)CCC[C@H]1c1ccc(Cl)cc1 [Example 9] | 29.1% | 52.8 nM | 12600 nM | 44.7 µL/min/mg | 1530 nM
17 | CC(C)(C)N1C[C@@H](C(=O)N2CCC[C@@H](c3ccc(Cl)cc3)N(C(=O)CC(F)(F)F)CC2)[C@H](c2ccc(F)cc2F)C1 [Example 12] | 34% | 32.8 nM | 4150 nM | 17 µL/min/mg | 807 nM
18 | CCCC(=O)N1CCN(C(=O)[C@@H]2CN(C(C)(C)C)C[C@H]2c2ccc(F)cc2F)CCC[C@H]1c1ccc(Cl)cc1 [Example 13] | 48.8% | 13.8 nM | 5000 nM | 37.8 µL/min/mg | 366 nM

Source: patent US8592403B2, “Diazepine and diazocane compounds as MC4 agonists” (Pfizer Limited, priority 2008, dated 2013)
